Reference: ChEMBL document CHEMBL3991601, “The target landscape of clinical kinase drugs” (Science, 2017)
The source made the active and inactive calls.

What was measured:
[1] = target: T1, Cytochrome c1, heme protein, mitochondrial (Homo sapiens, UniProt P08574)
T1 sequence (P08574 whole entry): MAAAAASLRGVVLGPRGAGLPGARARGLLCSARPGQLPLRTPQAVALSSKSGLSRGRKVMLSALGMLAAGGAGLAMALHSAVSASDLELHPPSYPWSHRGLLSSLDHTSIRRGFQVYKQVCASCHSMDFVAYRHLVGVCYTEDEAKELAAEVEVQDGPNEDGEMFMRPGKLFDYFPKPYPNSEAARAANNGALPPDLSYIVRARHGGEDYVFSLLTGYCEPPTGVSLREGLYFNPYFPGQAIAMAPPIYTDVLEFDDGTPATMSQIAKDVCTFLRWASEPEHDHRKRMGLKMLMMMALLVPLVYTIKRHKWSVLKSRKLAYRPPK

[2] = target: Casein kinase I isoform gamma-1 (Homo sapiens, UniProt Q9HCP0)
[3] = target: Mitogen-activated protein kinase 3 (Homo sapiens, UniProt P27361)
Sequence of Mitogen-activated protein kinase 3 (P27361 whole entry): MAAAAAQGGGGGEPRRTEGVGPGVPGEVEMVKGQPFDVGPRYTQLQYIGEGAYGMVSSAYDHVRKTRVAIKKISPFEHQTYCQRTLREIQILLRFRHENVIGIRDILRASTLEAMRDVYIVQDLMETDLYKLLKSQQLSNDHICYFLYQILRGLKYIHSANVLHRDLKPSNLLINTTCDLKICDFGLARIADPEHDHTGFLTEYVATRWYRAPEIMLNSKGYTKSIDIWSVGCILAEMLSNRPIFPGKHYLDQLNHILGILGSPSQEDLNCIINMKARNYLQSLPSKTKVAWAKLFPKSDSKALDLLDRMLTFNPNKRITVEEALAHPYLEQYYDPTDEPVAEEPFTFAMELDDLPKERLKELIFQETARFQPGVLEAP

[4] = target: Rho-associated protein kinase 2 (Homo sapiens, UniProt O75116)
Sequence of Rho-associated protein kinase 2 (O75116 whole entry): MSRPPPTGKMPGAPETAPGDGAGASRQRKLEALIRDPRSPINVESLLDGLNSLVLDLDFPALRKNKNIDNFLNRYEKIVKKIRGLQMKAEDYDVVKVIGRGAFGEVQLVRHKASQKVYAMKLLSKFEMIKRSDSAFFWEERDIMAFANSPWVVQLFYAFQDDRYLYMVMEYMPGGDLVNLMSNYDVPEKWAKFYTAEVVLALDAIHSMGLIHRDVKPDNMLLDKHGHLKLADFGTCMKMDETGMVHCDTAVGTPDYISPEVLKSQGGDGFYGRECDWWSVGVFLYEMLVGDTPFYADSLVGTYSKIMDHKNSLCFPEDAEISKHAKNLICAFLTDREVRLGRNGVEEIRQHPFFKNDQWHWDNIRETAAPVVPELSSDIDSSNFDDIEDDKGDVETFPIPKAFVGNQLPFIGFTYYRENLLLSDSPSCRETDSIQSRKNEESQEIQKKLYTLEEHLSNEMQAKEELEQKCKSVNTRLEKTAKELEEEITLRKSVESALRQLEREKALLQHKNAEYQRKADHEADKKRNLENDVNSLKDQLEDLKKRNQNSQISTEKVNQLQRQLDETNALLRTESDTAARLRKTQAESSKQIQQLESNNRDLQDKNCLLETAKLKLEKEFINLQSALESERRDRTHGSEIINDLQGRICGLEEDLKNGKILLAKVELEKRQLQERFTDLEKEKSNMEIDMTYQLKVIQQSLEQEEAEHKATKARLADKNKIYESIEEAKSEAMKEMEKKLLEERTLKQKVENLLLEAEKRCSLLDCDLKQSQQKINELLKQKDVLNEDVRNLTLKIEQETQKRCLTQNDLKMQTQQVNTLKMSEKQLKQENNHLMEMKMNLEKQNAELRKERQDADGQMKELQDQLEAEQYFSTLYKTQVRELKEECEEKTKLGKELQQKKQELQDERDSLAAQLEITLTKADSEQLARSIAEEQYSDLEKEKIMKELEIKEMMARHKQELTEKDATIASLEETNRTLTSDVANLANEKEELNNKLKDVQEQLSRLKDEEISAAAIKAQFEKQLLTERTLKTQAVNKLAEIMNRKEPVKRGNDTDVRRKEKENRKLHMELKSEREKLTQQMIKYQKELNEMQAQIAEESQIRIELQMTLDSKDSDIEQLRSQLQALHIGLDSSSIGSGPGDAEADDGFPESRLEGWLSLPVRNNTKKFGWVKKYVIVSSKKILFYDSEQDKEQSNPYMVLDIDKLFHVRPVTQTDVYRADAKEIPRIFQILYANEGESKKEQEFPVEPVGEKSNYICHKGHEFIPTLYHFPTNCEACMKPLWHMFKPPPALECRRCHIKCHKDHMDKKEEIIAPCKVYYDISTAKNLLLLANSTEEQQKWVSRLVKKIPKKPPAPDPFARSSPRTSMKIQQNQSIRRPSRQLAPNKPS

[5] = target: Putative heat shock protein HSP 90-beta 2 (Homo sapiens, UniProt Q58FF8)
Sequence of Putative heat shock protein HSP 90-beta 2 (Q58FF8 whole entry): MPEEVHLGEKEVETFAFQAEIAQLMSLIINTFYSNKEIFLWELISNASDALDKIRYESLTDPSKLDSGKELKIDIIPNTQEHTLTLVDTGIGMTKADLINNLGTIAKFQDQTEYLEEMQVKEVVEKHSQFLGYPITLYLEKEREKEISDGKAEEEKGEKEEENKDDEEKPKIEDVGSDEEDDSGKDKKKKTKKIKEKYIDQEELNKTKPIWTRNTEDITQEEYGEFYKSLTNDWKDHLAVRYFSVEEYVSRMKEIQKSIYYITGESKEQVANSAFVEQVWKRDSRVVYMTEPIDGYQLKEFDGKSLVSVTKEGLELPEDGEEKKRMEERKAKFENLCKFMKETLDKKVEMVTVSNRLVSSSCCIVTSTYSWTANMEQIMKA

[6] = target: MAP/microtubule affinity-regulating kinase 3 (Homo sapiens, UniProt P27448)
Sequence of MAP/microtubule affinity-regulating kinase 3 (P27448 whole entry): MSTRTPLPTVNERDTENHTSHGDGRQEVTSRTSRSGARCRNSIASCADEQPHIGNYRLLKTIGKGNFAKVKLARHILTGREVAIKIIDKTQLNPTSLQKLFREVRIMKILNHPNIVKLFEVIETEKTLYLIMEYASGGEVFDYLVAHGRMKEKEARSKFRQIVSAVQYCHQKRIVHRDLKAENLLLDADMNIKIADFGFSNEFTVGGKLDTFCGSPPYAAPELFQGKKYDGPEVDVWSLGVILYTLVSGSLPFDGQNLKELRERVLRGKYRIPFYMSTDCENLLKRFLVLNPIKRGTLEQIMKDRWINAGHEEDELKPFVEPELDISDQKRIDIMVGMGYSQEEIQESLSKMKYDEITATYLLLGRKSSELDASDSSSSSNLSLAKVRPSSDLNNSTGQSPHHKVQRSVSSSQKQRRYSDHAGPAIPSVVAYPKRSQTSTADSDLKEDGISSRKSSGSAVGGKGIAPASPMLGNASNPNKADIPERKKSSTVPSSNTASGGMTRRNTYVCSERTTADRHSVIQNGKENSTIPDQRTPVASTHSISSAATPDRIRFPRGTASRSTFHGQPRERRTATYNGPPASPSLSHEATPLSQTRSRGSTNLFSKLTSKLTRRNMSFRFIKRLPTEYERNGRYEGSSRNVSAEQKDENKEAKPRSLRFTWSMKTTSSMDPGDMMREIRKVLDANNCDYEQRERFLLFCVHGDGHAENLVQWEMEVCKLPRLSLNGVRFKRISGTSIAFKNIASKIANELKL

[7] = target: cAMP-dependent protein kinase catalytic subunit gamma (Homo sapiens, UniProt P22612)
Sequence of cAMP-dependent protein kinase catalytic subunit gamma (P22612 whole entry): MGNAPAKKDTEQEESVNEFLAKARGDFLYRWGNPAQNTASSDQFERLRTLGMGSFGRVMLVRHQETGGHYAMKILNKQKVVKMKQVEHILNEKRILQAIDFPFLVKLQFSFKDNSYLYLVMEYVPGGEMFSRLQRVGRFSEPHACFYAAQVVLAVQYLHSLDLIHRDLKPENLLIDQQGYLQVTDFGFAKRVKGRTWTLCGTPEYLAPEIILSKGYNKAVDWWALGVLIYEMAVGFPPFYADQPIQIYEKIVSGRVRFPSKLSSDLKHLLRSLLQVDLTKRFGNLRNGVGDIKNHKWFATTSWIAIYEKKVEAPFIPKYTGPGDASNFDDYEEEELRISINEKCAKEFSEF

[8] = target: T2, Tyrosine--tRNA ligase, cytoplasmic (Homo sapiens, UniProt P54577)
T2 sequence (P54577 whole entry): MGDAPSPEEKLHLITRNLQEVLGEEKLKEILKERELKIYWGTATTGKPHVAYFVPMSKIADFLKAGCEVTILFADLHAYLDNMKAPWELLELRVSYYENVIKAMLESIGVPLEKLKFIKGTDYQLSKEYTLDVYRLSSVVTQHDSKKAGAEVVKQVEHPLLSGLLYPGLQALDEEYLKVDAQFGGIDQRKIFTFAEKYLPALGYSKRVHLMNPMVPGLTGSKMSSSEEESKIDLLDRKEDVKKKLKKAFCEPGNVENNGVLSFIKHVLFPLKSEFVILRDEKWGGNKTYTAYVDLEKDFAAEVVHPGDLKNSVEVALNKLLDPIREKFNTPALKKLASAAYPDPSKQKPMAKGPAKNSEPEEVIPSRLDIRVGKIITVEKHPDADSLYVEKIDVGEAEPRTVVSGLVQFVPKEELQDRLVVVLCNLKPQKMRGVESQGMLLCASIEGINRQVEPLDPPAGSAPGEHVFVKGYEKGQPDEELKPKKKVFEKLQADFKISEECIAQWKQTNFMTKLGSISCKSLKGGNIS

[9] = target: Casein kinase I isoform delta (Homo sapiens, UniProt P48730)
Sequence of Casein kinase I isoform delta (P48730 whole entry, canonical isoform): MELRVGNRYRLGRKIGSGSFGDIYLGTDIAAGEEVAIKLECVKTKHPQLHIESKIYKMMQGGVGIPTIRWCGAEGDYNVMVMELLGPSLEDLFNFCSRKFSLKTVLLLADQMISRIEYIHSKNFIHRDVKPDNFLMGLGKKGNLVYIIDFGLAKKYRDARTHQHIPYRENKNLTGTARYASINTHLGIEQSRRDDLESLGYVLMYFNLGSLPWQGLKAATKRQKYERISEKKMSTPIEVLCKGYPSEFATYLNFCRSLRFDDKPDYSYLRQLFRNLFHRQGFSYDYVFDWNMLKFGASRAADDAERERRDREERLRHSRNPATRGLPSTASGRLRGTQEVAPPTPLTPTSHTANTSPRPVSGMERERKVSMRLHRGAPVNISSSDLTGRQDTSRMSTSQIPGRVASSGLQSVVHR

[10] = target: Protein-tyrosine kinase 6 (Homo sapiens, UniProt Q13882)
Sequence of Protein-tyrosine kinase 6 (Q13882 whole entry): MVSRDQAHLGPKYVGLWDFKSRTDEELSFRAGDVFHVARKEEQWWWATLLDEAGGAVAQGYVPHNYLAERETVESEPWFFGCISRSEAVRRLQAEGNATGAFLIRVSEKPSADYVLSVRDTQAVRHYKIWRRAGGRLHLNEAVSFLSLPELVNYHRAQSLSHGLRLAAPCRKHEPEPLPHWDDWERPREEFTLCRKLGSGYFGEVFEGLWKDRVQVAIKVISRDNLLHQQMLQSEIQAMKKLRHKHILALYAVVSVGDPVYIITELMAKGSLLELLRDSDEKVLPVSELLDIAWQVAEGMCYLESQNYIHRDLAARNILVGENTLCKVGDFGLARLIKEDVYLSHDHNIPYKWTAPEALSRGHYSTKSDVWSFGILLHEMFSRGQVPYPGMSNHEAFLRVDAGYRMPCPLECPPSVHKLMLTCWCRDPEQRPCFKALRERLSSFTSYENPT

[11] = target: T3, Long-chain-fatty-acid--CoA ligase 5 (Homo sapiens, UniProt Q9ULC5)
T3 sequence (Q9ULC5 whole entry): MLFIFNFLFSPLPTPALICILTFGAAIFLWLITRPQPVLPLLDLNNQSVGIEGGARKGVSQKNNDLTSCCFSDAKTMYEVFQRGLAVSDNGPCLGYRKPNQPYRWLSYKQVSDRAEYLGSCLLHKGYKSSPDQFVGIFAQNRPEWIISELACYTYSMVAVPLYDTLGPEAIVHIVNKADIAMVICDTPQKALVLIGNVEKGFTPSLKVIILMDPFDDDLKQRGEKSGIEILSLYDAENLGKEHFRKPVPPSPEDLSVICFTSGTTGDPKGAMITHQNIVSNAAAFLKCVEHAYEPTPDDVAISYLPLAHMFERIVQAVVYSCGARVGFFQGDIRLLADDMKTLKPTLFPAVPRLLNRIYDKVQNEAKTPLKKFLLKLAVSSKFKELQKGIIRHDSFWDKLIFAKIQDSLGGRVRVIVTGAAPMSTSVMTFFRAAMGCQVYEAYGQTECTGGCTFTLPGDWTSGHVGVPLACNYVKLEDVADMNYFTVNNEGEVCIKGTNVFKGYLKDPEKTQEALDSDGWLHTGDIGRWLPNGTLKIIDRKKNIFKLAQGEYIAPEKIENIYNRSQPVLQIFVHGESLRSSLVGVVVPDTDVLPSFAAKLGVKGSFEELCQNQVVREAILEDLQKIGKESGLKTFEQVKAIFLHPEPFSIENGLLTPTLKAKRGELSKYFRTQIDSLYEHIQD

[12] = target: S-adenosylmethionine synthase isoform type-2 (Homo sapiens, UniProt P31153)
Sequence of S-adenosylmethionine synthase isoform type-2 (P31153 whole entry, canonical isoform): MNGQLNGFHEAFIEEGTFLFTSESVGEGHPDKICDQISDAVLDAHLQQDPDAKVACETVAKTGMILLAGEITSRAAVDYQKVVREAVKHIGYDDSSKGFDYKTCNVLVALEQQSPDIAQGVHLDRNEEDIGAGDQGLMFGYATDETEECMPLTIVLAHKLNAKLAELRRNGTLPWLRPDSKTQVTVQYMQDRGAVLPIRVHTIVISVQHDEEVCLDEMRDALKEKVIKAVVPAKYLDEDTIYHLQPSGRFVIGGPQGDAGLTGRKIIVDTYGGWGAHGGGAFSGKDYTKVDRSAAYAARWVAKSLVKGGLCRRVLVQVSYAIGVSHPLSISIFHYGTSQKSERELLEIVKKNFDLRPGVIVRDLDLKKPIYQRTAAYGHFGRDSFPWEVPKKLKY

[13] = target: RAC-alpha serine/threonine-protein kinase (Homo sapiens, UniProt P31749)
Sequence of RAC-alpha serine/threonine-protein kinase (P31749 whole entry): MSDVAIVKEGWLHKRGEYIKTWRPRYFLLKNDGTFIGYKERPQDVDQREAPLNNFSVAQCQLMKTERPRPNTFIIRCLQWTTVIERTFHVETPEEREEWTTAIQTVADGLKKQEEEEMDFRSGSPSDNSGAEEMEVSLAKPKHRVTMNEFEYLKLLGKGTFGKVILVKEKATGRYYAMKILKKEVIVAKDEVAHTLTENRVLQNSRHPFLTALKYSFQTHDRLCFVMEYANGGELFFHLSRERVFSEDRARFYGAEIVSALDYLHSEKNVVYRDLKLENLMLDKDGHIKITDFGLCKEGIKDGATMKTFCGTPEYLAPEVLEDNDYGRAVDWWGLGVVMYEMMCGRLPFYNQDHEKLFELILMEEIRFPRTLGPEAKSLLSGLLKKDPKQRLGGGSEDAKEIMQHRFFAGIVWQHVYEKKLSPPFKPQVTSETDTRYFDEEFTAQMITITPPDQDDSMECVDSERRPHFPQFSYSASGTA

[14] = target: T4, Phosphatidylinositol 5-phosphate 4-kinase type-2 alpha (Homo sapiens, UniProt P48426)
T4 sequence (P48426 whole entry): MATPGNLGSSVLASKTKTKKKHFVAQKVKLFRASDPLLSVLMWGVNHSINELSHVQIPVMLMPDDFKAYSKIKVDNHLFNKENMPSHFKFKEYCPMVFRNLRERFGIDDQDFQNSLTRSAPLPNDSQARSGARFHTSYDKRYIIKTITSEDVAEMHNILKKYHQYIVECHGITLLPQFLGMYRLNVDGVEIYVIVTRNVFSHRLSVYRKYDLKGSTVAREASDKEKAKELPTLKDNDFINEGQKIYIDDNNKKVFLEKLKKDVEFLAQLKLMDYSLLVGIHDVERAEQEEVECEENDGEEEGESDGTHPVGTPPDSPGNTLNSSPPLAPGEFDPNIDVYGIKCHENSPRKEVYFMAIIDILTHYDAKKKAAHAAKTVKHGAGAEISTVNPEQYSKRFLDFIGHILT
Further: in the data inactive means no Kd found up to 30 µM.

Kd [1] | Kd [2] | Kd [3] | Kd [4] | Kd [5] | Kd [6] | Kd [7] | Kd [8] | Kd [9] | Kd [10] | Kd [11] | Kd [12] | Kd [13] | Kd [14] | Compound
> 30 µM (inactive) | > 30 µM (inactive) | > 30 µM (inactive) | > 30 µM (inactive) | > 30 µM (inactive) | > 30 µM (inactive) | > 30 µM (inactive) | > 30 µM (inactive) | > 30 µM (inactive) | > 30 µM (inactive) | > 30 µM (inactive) | > 30 µM (inactive) | > 30 µM (inactive) | > 30 µM (inactive) | NC(=O)c1ccc(N(C(N)=O)c2c(F)cccc2F)nc1-c1ccc(F)cc1F [VX-702]
> 30 µM (inactive) | > 30 µM (inactive) | > 30 µM (inactive) | > 30 µM (inactive) | > 30 µM (inactive) | – | > 30 µM (inactive) | > 30 µM (inactive) | > 30 µM (inactive) | > 30 µM (inactive) | > 30 µM (inactive) | > 30 µM (inactive) | – | > 30 µM (inactive) | Cn1c(=O)n(-c2ccc(C(C)(C)C#N)cc2)c2c3cc(-c4cnc5ccccc5c4)ccc3ncc21 [DACTOLISIB]
> 30 µM (inactive) | – | – | – | > 30 µM (inactive) | – | > 30 µM (inactive) | > 30 µM (inactive) | – | – | > 30 µM (inactive) | > 30 µM (inactive) | – | > 30 µM (inactive) | COc1cc2c(N3CCN(C(=O)Nc4ccc(OC(C)C)cc4)CC3)ncnc2cc1OCCCN1CCCCC1 [TANDUTINIB]
> 30 µM (inactive) | – | – | – | > 30 µM (inactive) | – | > 30 µM (inactive) | > 30 µM (inactive) | – | – | > 30 µM (inactive) | > 30 µM (inactive) | – | > 30 µM (inactive) | CN(C)C/C=C/C(=O)Nc1cc2c(Nc3ccc(F)c(Cl)c3)ncnc2cc1O[C@H]1CCOC1 [AFATINIB]
> 30 µM (inactive) | > 30 µM (inactive) | > 30 µM (inactive) | > 30 µM (inactive) | > 30 µM (inactive) | > 30 µM (inactive) | > 30 µM (inactive) | > 30 µM (inactive) | > 30 µM (inactive) | > 30 µM (inactive) | > 30 µM (inactive) | – | > 30 µM (inactive) | > 30 µM (inactive) | FC(F)(F)c1ccc(CNc2ccc(Cc3c[nH]c4ncc(Cl)cc34)cn2)cn1 [PEXIDARTINIB]
> 30 µM (inactive) | > 30 µM (inactive) | > 30 µM (inactive) | > 30 µM (inactive) | > 30 µM (inactive) | > 30 µM (inactive) | > 30 µM (inactive) | > 30 µM (inactive) | > 30 µM (inactive) | > 30 µM (inactive) | > 30 µM (inactive) | – | > 30 µM (inactive) | > 30 µM (inactive) | Cc1cc(C(=O)Nc2cc(Oc3ccc4nc(NC(=O)C5CC5)cn4n3)ccc2C)n(C)n1 [TAK-593]
> 30 µM (inactive) | > 30 µM (inactive) | > 30 µM (inactive) | – | > 30 µM (inactive) | > 30 µM (inactive) | > 30 µM (inactive) | > 30 µM (inactive) | > 30 µM (inactive) | > 30 µM (inactive) | > 30 µM (inactive) | > 30 µM (inactive) | > 30 µM (inactive) | > 30 µM (inactive) | O=S(=O)(c1cccc2c(O)nccc12)N1CCCNCC1 [HYDROXYFASUDIL]
> 30 µM (inactive) | > 30 µM (inactive) | > 30 µM (inactive) | > 30 µM (inactive) | > 30 µM (inactive) | > 30 µM (inactive) | > 30 µM (inactive) | > 30 µM (inactive) | > 30 µM (inactive) | > 30 µM (inactive) | > 30 µM (inactive) | > 30 µM (inactive) | > 30 µM (inactive) | – | CC(C)(O)CC(=O)NCCn1ccc2ncnc(Nc3ccc(Oc4cccc(C(F)(F)F)c4)c(Cl)c3)c21 [TAK-285]
> 30 µM (inactive) | > 30 µM (inactive) | > 30 µM (inactive) | > 30 µM (inactive) | > 30 µM (inactive) | > 30 µM (inactive) | > 30 µM (inactive) | > 30 µM (inactive) | > 30 µM (inactive) | > 30 µM (inactive) | > 30 µM (inactive) | > 30 µM (inactive) | > 30 µM (inactive) | – | COc1cc2ncnc3c2cc1OCCCCCN(C)Cc1ccc(Br)cc1N3 [JNJ-26483327]
> 30 µM (inactive) | > 30 µM (inactive) | > 30 µM (inactive) | – | > 30 µM (inactive) | – | > 30 µM (inactive) | > 30 µM (inactive) | > 30 µM (inactive) | > 30 µM (inactive) | > 30 µM (inactive) | > 30 µM (inactive) | > 30 µM (inactive) | > 30 µM (inactive) | CCN(CCCOc1ccc2c(Nc3cc(CC(=O)Nc4cccc(F)c4)n[nH]3)ncnc2c1)CCOP(=O)(O)O [BARASERTIB]
> 30 µM (inactive) | > 30 µM (inactive) | > 30 µM (inactive) | > 30 µM (inactive) | > 30 µM (inactive) | > 30 µM (inactive) | > 30 µM (inactive) | > 30 µM (inactive) | > 30 µM (inactive) | > 30 µM (inactive) | > 30 µM (inactive) | > 30 µM (inactive) | > 30 µM (inactive) | – | O=C(NC[C@H](O)CO)c1ccncc1Nc1ccc(I)cc1F [PIMASERTIB]

Compound | Kd [1] | Kd [2] | Kd [3] | Kd [4] | Kd [5] | Kd [6] | Kd [7] | Kd [8] | Kd [9] | Kd [10] | Kd [11] | Kd [12] | Kd [13] | Kd [14]
CN(c1ncccc1CNc1nc(Nc2ccc3c(c2)CC(=O)N3)ncc1C(F)(F)F)S(C)(=O)=O [PF-00562271] | > 30 µM (inactive) | – | > 30 µM (inactive) | – | > 30 µM (inactive) | – | > 30 µM (inactive) | > 30 µM (inactive) | – | > 30 µM (inactive) | > 30 µM (inactive) | > 30 µM (inactive) | – | > 30 µM (inactive)
C=CCn1c(=O)c2cnc(Nc3ccc(N4CCN(C)CC4)cc3)nc2n1-c1cccc(C(C)(C)O)n1 [ADAVOSERTIB] | > 30 µM (inactive) | > 30 µM (inactive) | > 30 µM (inactive) | > 30 µM (inactive) | > 30 µM (inactive) | > 30 µM (inactive) | > 30 µM (inactive) | > 30 µM (inactive) | > 30 µM (inactive) | > 30 µM (inactive) | > 30 µM (inactive) | > 30 µM (inactive) | > 30 µM (inactive) | –
